# Assay results: patent US20260199284A1, “SPECIFIC VASH COMPOUNDS (SVC) INHIBITORS FOR HEART DISEASES” (MT ACT, priority 2023, published 2026)
# Entries after “also recorded” stand apart in the source; their conditions may differ.
# How the values were obtained:
# recombinant human VASH2 = recombinant human VASH2 (Homo sapiens, UniProt Q86V25); assay: In vitro detyrosination assay with recombinant human VASH2; assay type: biochemical; settings: increasing concentration
# Protocol: FIG. 32: In vitro detyrosination assays using recombinant human VASH1 and VASH2 enzymes in presence of increasing concentration of SVC_01.
# Specificity of SVC-01 was assayed using both human VASH1 and VASH2 recombinant enzymes. […] Finally, to ensure that regulation of other genes involved in the detyrosination-tyrosination cycle is not affected, we analysed gene expression of all relevant and associated genes following treatment with SVC-02 in adult human cardiomyocytes. We found no alteration of VASH1, VASH2, MATCAP, TTL or SVBP gene expression between vehicle control and SVC-02 treated cells (FIG. 34).
# Carboxypeptidase A (CPA) = biological target: T1, Carboxypeptidase A (CPA) (Homo sapiens, UniProt P15085); assay: Carboxypeptidase A in vitro assay (western blot); assay type: biochemical; settings: selectivity control
# T1 sequence (P15085 111-419): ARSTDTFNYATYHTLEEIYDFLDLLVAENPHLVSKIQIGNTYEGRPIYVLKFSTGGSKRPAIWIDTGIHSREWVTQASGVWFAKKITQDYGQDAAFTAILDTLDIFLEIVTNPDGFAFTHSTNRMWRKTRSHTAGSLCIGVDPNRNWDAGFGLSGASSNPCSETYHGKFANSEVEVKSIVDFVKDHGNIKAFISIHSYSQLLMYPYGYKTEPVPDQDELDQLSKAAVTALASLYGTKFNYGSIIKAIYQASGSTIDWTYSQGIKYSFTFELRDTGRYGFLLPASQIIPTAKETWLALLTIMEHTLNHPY
# From the text: FIG. 6: In vitro detyrosination assays using recombinant human enzymes in absence or presence of SVC_01 or BzISA (specific carboxypeptidase A inhibitor). […] Reactions were stopped using SDS-page laemli buffer and loaded for western blotting using specific antibodies.
# Below, the criteria for selection are detailed: • Protease with documented carboxypeptidase activity towards alpha tubulin. Carboxypeptidase A hydrolyzes peptide bonds of C-terminal residues with aromatic or aliphatic side-chains (FIG. 6). • Cysteine protease with preference for non-aromatic residues at P1′. The optimum recognition site for Human rhinovirus (HRV) type 14 3C protease is LEVLFQ/GP, with a glycine at the P1′ position (FIG. 7). • Cysteine protease with preference for aromatic residues at P1′ site. Alike VASH, cathepsin B prefers an aromatic residue at the P1′ position. This is considered to be our best control for specificity (FIG. 8)
# [1] = tested on: primary cardiomyocytes isolated from Sprague Dawley rats; assay: Western blot of detyrosinated tubulin in primary cardiomyocytes; assay type: cell-based, rat
# Protocol: A) Representative western blot and B) quantification of detyrosinated and alpha-tubulin levels after 2 hrs 37° C. incubation of freshly isolated adult rat cardiomyocytes with compound SVC_01 at indicated concentrations. N=4 Sprague Dawley rats.
# Primary adult ventricular cardiac myocytes were isolated from 6 to 8 weeks old Sprague Dawley rats or 20 to 30 weeks old WKY, ZSF1 lean and obese rats. Briefly, the heart was removed from a rat anesthetized under isoflurane and retrograde-perfused on a Langendorff apparatus with a collagenase solution. The digested heart was then minced and triturated using a glass pipette. The resulting supernatant was separated and centrifuged at 300 revolution per minute (rpm) to isolate cardiomyocytes which were then resuspended in rat cardiomyocyte media at low density. Cardiomyocytes were cultured at 37° C. and 5% CO2 with 25 μmol/L of cytochalasin D. Rat cardiomyocyte media: medium 199 (Thermo Fisher 115090) supplemented with 1× Insulin-transferrin-selenium-X (Gibco 51500056), 1 μg μl^−1 primocin (Invivogen ant-pm-1), 20 mmol/L HEPES at pH 7.4 and 25 μmol/L cytochalasin D.
# For whole cell protein extraction, isolated rat cardiomyocytes were lysed in RIPA buffer (Cayman #10010263) supplemented with protease and phosphatase Inhibitor cocktail (Cell Signaling #5872S) on ice for 1 hour. […] All samples were run in duplicates and analyzed in reference to GAPDH.
# Chain of recombinant human VASH2 (Q86V25 whole entry): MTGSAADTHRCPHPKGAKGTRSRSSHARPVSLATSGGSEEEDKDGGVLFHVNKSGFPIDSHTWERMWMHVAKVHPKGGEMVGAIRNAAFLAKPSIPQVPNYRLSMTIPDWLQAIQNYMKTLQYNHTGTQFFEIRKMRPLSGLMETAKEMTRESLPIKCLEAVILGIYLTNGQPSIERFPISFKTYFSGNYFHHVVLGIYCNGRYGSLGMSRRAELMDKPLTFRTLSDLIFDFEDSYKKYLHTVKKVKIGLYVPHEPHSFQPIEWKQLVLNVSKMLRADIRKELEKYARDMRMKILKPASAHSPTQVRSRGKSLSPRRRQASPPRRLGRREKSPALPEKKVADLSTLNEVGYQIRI
structure (smiles),measurement,setting,value
O=C(O)CCC[C@H](NC(=O)[C@H]1O[C@@H]1C(=O)C[C@@H](Cc1ccc(OCc2ccccc2)cc1)C(=O)O)C(=O)NCCc1ccccc1 [SVC_01],inhibition of detyrosinating activity of recombinant human VASH2,recombinant human VASH2,efficiently inhibited; also recorded: efficient in inhibiting
same,inhibition of Carboxypeptidase A,Carboxypeptidase A (CPA),No cross reactions observed
same,reduction of tubulin detyrosination,"[1]; 2 hours incubation, Sprague Dawley rat cardiomyocytes",~80%
same,reduction in detyrosination,"[1]; 2 hrs 37° C., indicated concentrations",Dose-dependent reduction in detyrosination
